From patent publication US9969697B2, “3,4-dihydroquinazoline derivative and combination comprising the same” (UNIVERSITY-INDUSTRY COOPERATION GROUP OF KYUNG HEE …, priority 2014, dated 2018)

Experiments:
[1] = test system: A549 cell line (human lung cancer); experiment: MTT cytotoxicity assay on cancer cells; format: cell-based; conditions: 48 hours after treatment
Description: A549 cell line (human lung cancer) and PANC-1 cell line (human pancreatic cancer) were obtained from Korean Cell Line Bank (KCLB). The cells were cultured in RPMI 1640 medium supplemented with 10% fetal bovine serum (FBS) being heated and inactivated, penicillin (100 units/ml) and streptomycin sulfate (100 units/ml) under the condition of 37° C. and 5% CO2.
In order to confirm the cytotoxicity of drugs, an MTT (3-(4,5-dimethylthiazol-2-yl)-2,5-diphenyltetrazolium bromide) assay was conducted as follows [See Armichael et al., Evaluation of a tetrazolium-based semiautomated colorimetric assay: assessment of chemisensitivity testing. Cancer Research, 47, pp. 944-946, 1987]. The MTT assay is based on the reduction of water-soluble MTT (tetrazolium salt, yellow) which can be absorbed in living cells to its water-insoluble formazan crystals (purple) by activity of oxidoreductase enzymes of mitochondria. That is, when the number of viable cells is more, the formation of formazan crystals increases and the value of absorbance becomes higher.
Each of the cultured cancer cells was inoculated in a 96-well plate (5×10^4 cells/well) and cultured in RPMI medium (100 μl) containing 5% FBS. In 48 hours after the treatment of drugs (200, 100, 50, 25, 12.5, 6.25, 3.125 μM), 20 μl of an MTT solution (5.0 mg/ml) was added to each well, followed by further incubation for 4 hours. The supernatant of the plate was collected, and formazan crystals formed by MTT in the cells were added in 200 μl of DMSO to dissolve the precipitate. The OD value was measured at 540 nm using microplate reader (Molecular Devices).

lung cancer cells (A549) [2] = experiment: Annexin V-FITC/PI double staining assay (apoptosis), with combination index; format: cell-based, human; set-up: unit not given here
Description: Cell death include the event that phosphatidylserine translocated to the surface of cell membrane is bound to Annexin V-FITC to express fluorochromes. Cells were treated with drugs, harvested, washed with ice-cold PBS twice, and supplied with 100 μl of Annexin V binding buffer ([…] 4-(2-hydroxyethyl)piperazine-1-ethanesulfonic acid (HEPES)/NaOH, 140 mM NaCl, 2.5 mM CaCl2, pH 7.4). Thereto, 5 μl of FITC-conjugated Annexin V and PI (50 μg/ml) were added. The mixture was left for 30 minutes in the dark at room temperature, followed by analysis within 1 hour using FACScan flow cytometer (Becton Dickinson Co, Heidelberg, Germany).
(§1) Combination index (CI) mathematically expresses the cytotoxicity on cancer cells or growth inhibition of cancer cells through relative comparison after treating drugs alone or in a combination. The CI is the quantitative concept introduced by Paul Talalay and Ting-Chao Chou and was calculated using CalcuSyn software. The effect of combination treatment according to the values of CI was defined as follows.

[3] = test system: pancreatic cancer cells (PANC-1); experiment: Cell cycle analysis by PI staining / flow cytometry, with combination index; format: cell-based, human; conditions: PANC-1, 48 hours, Table 3
[4] = biological target: T1, α1G T-type calcium channel (Homo sapiens, UniProt O43497); experiment: T-type calcium channel activity, whole-cell patch-clamp in HEK293 cells; format: cell-based; conditions: HEK293 cells expressing α1G T-type calcium channel; read-out: T-type calcium channel blocking effect (IC50: μM)
T1 construct: expressed in transfected cells
T1 sequence (O43497 whole entry): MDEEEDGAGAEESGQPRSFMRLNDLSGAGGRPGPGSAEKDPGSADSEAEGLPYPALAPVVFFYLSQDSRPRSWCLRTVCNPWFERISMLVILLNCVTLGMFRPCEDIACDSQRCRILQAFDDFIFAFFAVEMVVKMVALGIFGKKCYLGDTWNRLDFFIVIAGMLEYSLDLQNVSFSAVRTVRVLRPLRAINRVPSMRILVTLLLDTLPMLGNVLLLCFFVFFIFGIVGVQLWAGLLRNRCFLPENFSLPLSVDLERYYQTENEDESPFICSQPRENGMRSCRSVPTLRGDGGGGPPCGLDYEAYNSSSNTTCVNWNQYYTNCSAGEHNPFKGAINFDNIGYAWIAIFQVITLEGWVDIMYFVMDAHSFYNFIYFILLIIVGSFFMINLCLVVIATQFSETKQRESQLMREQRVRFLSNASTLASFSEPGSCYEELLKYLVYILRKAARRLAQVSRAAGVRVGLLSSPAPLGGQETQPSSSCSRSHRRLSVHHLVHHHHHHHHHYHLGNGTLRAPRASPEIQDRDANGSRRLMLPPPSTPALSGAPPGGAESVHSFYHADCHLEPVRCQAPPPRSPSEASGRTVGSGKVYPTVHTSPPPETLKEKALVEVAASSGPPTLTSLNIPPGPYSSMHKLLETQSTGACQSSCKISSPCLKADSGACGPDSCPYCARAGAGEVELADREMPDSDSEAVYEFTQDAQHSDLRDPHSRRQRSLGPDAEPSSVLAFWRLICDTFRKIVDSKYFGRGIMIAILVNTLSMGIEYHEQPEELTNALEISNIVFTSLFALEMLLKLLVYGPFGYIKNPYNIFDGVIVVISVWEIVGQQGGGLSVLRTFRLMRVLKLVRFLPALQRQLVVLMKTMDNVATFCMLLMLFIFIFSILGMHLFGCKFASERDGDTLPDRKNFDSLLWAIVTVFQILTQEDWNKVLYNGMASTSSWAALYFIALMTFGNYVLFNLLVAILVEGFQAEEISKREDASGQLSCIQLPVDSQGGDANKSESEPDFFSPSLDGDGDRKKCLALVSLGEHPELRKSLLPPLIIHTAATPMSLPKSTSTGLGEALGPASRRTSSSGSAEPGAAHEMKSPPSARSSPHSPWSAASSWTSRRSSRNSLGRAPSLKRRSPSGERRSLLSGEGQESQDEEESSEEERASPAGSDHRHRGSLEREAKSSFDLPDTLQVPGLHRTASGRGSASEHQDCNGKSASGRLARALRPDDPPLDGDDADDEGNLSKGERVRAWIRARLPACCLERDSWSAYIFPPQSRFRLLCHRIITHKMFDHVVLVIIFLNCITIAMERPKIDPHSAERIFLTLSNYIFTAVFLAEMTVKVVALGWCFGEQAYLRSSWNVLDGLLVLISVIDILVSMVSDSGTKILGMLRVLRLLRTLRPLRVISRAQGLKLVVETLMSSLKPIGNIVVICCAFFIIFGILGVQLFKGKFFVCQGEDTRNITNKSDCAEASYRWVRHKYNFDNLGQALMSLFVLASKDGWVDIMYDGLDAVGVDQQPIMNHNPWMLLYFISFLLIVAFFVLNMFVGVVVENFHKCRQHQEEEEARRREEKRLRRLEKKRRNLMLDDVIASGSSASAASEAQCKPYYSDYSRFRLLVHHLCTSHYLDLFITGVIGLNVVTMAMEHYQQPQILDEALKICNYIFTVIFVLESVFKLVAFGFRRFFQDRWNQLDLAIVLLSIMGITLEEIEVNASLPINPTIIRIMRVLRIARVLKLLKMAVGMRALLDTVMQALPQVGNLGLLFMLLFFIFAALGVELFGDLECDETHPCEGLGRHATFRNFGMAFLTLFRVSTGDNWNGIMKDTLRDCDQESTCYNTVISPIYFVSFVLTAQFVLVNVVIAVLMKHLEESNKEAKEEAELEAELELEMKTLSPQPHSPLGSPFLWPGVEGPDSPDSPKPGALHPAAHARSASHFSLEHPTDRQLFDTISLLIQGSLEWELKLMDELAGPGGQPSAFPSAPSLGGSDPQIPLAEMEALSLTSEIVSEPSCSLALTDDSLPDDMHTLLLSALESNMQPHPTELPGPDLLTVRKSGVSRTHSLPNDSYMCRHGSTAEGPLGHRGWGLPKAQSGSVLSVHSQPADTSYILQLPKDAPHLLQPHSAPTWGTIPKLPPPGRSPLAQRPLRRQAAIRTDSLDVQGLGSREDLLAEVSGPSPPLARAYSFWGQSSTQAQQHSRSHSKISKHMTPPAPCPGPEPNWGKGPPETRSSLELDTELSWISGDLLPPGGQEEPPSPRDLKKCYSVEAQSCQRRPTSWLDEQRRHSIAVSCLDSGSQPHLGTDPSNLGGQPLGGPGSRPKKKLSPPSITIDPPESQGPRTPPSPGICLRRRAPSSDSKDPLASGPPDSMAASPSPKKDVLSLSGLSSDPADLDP
Description: The culture medium was replaced with a fresh medium every 3 to 4 days, and the cultured cells were subjected to sub-culture every week. […] The cells used for T-type calcium channel activity assay were cultured on a cover slip coated with poly-L-lysine (0.5 mg/mL) whenever sub-cultured, and their calcium channel activity was recorded 2 to 7 days after the cultivation. Current of the T-type calcium channel at a single cell level was measured according to an electrophysiological whole-cell patch-clamp method using EPC-9 amplifier (HEKA, Germany). At this time, a cell exterior solution [NaCl 140 mM, CaCl2 2 mM, and HEPES 10 mM (pH 7.4)] and a cell interior solution [KCl 130 mM, HEPES 10 mM, EGTA 11 mM, and MgATP 5 mM (pH 7.4)] were employed. Inward current caused by the T-type calcium channel activation which occurred when the cells were converted into a whole-cell recording mode by stabbing a microglass electrode having 3-4 MΩ resistance which was filled with the cell interior solution into a single cell and depolarized at −30 mV (50 ms duration period) every 10 s with fixing membrane potential to −100 mV was measured according to a T-type calcium Channel activity protocol activated at low voltage.

lung cancer cells (A549) [5] = experiment: Cell cycle analysis by PI staining / flow cytometry, with combination index; format: cell-based, human; set-up: SubG1: unit not given here; conditions: A549, 48 hours
Description: To measure the inviability of cancer cells quantitatively, the cell cycle thereof was analyzed through flow cytometry as follows, in accordance with the method given in the document [See Kim, Y. H. et al., Expression of the murine homologue of the cell cycle control protein […] in T lymphocytes.
After adding ribonuclease (2.5 μg/ml) and propidium iodide (50 μg/ml) together with 500 μl of PBS, the cells were left for 30 minutes in the dark at room temperature, followed by analyzing cell cycle within 1 hour using FACScan flow cytometer (Becton Dickinson Co, Heidelberg, Germany).
as §1

Molecule `COCC(=O)O[C@]1(CCN(C)CCCc2nc3ccccc3[nH]2)CCc2cc(F)ccc2[C@@H]1C(C)C` [Mibefradil] has an IC50 [1] of 24.9 µM.
For `CN(C)C(=O)NCCCN(C)C1=Nc2ccccc2C(CC(=O)NCc2ccc(F)cc2)N1c1ccc(C2CCCCC2)cc1` (stereo not shown) [Compound I-2, 4-[N-(4-fluorobenzyl)acetamido]-3-(4-cyclohexylphenyl)-2-[N—(N′,N′-dimethylureidopropyl)-N-methyl]amino-3,4-dihydroquinazoline], the “AV+/PI− (early apoptosis)” value (lung cancer cells (A549) [2]; A549, 2.5 μM) was 2.4, the “Total AV+ (sum of early and late apoptosis)” value (“Total AV+” for short) (lung cancer cells (A549) [2]; A549, 2.5 μM) was 6.08 and the “AV+/PI− (early apoptosis)” value (lung cancer cells (A549) [2]; A549, 5 μM) was 1.88. The “Total AV+” value (lung cancer cells (A549) [2]; A549, 5 μM) was 4.78, the “AV+/PI− (early apoptosis)” value (lung cancer cells (A549) [2]; A549, 10 μM) was 8.8 and the “Total AV+” value (lung cancer cells (A549) [2]; A549, 10 μM) was 13.14. It also gave an IC50 [1] of 7.3 µM, a G0/G1 ([3]; 2.5 μM) of 44.7 and a G2/M ([3]; 2.5 μM) of 35. The S ([3]; 2.5 μM) was 7.2, the SubG1 ([3]; 2.5 μM) was 2.5 and the IC50 [4] was 0.89 ± 0.06 µM. For the same molecule, the G0/G1 (lung cancer cells (A549) [5]; 10 μM, Table 2) was 79.1, the G2/M (lung cancer cells (A549) [5]; 10 μM, Table 2) was 10.9 and the S (lung cancer cells (A549) [5]; 10 μM, Table 2) was 2.4. For the same molecule, the SubG1 (lung cancer cells (A549) [5]; 10 μM, Table 2) was 7.6, the G0/G1 (lung cancer cells (A549) [5]; 10 μM, Table 4) was 77.4 and the G2/M (lung cancer cells (A549) [5]; 10 μM, Table 4) was 13.3. It also gave an S (lung cancer cells (A549) [5]; 10 μM, Table 4) of 5.4, a SubG1 (lung cancer cells (A549) [5]; 10 μM, Table 4) of 4.0 and a G0/G1 (lung cancer cells (A549) [5]; 10 μM, Table 5) of 76.8. The G2/M (lung cancer cells (A549) [5]; 10 μM, Table 5) was 12.1, the S (lung cancer cells (A549) [5]; 10 μM, Table 5) was 7.6 and the SubG1 (lung cancer cells (A549) [5]; 10 μM, Table 5) was 3.7.
`COc1cccc2c1C(=O)c1c(O)c3c(c(O)c1C2=O)C[C@@](O)(C(=O)CO)C[C@@H]3O[C@H]1C[C@H](N)[C@H](O)[C@H](C)O1` [Doxorubicin] gave a G0/G1 (lung cancer cells (A549) [5]; 10 μM, Table 5) of 36.7, a G2/M (lung cancer cells (A549) [5]; 10 μM, Table 5) of 18.3 and an S (lung cancer cells (A549) [5]; 10 μM, Table 5) of 11.9. For the same molecule, the SubG1 (lung cancer cells (A549) [5]; 10 μM, Table 5) was 33.5, the G0/G1 (lung cancer cells (A549) [5]; 10 μM, Table 6) was 36.7 and the G2/M (lung cancer cells (A549) [5]; 10 μM, Table 6) was 18.3. The S (lung cancer cells (A549) [5]; 10 μM, Table 6) was 11.9 and the SubG1 (lung cancer cells (A549) [5]; 10 μM, Table 6) was 33.5.
`Cc1ccc(NC(=O)c2ccc(CN3CCN(C)CC3)cc2)cc1Nc1nccc(-c2cccnc2)n1` [Imatinib] gave a G0/G1 (lung cancer cells (A549) [5]; 100 μM, Table 5) of 72.4, a G2/M (lung cancer cells (A549) [5]; 100 μM, Table 5) of 14.4 and a SubG1 (lung cancer cells (A549) [5]; 100 μM, Table 5) of 2.9. For the same molecule, the G0/G1 (lung cancer cells (A549) [5]; 100 μM, Table 6) was 72.4, the G2/M (lung cancer cells (A549) [5]; 100 μM, Table 6) was 14.4 and the SubG1 (lung cancer cells (A549) [5]; 100 μM, Table 6) was 2.9.
Work on `CN(C)C(=O)NCCCN(C)C1=Nc2ccccc2C(CC(=O)NCc2ccccc2)N1c1ccc(C2CCCCC2)cc1` (stereo not shown) [Compound I-1, 4-(N-benzylacetamido)-3-(4-cyclohexylphenyl)-2-[N—(N′,N′-dimethylureidopropyl)-N-methyl]amino-3,4-dihydroquinazoline] yielded an IC50 [1] of 12.2 µM and an IC50 [4] of 0.39 ± 0.11 µM.
In the case of `COc1ccc(CN(C(C)=O)C2c3ccccc3N=C(N(C)CCCNC(=O)N(C)C)N2c2ccc(C3CCCCC3)cc2)cc1` (stereo not shown) [Compound I-3, 4-[N-(4-methoxybenzyl)acetamido)-3-(4-cyclohexylphenyl)-2-[N—(N′,N′-dimethylureidopropyl)-N-methyl]amino-3,4-dihydroquinazoline], the G0/G1 (lung cancer cells (A549) [5]; 10 μM, Table 6) is reported as 76.8, the G2/M (lung cancer cells (A549) [5]; 10 μM, Table 6) is reported as 12.1 and the S (lung cancer cells (A549) [5]; 10 μM, Table 6) is reported as 7.6. For the same molecule, the SubG1 (lung cancer cells (A549) [5]; 10 μM, Table 6) was 3.7.
In the case of `COc1cc([C@@H]2c3cc4c(cc3[C@@H](O[C@@H]3O[C@@H]5CO[C@@H](C)O[C@H]5[C@H](O)[C@H]3O)[C@H]3COC(=O)[C@H]23)OCO4)cc(OC)c1O` [Etoposide], the “AV+/PI− (early apoptosis)” value (lung cancer cells (A549) [2]; A549, 50 μM) is reported as 19.1, the “Total AV+” value (lung cancer cells (A549) [2]; A549, 50 μM) is reported as 31.68 and the G0/G1 (lung cancer cells (A549) [5]; 50 μM, Table 4) is reported as 36.0. It also gave a G2/M (lung cancer cells (A549) [5]; 50 μM, Table 4) of 18.9, an S (lung cancer cells (A549) [5]; 50 μM, Table 4) of 12.3 and a SubG1 (lung cancer cells (A549) [5]; 50 μM, Table 4) of 33.0.
`COc1cc2ncnc(Nc3ccc(F)c(Cl)c3)c2cc1OCCCN1CCOCC1` [Gefitinib] showed a G0/G1 (lung cancer cells (A549) [5]; 40 μM, Table 5) of 72.7, a G2/M (lung cancer cells (A549) [5]; 40 μM, Table 5) of 11.8 and an S (lung cancer cells (A549) [5]; 40 μM, Table 5) of 4. The SubG1 (lung cancer cells (A549) [5]; 40 μM, Table 5) was 11.6, the G0/G1 (lung cancer cells (A549) [5]; 40 μM, Table 6) was 72.7 and the G2/M (lung cancer cells (A549) [5]; 40 μM, Table 6) was 11.8. It also gave an S (lung cancer cells (A549) [5]; 40 μM, Table 6) of 4 and a SubG1 (lung cancer cells (A549) [5]; 40 μM, Table 6) of 11.6.
`N.N.[Cl][Pt][Cl]` [Cisplatin] showed a G0/G1 ([3]; 30 μM) of 42, a G2/M ([3]; 30 μM) of 29.4 and an S ([3]; 30 μM) of 9.4. For the same molecule, the SubG1 ([3]; 30 μM) was 9.3, the G0/G1 (lung cancer cells (A549) [5]; 20 μM, Table 2) was 9.0 and the G2/M (lung cancer cells (A549) [5]; 20 μM, Table 2) was 67.5. It also gave an S (lung cancer cells (A549) [5]; 20 μM, Table 2) of 13.1, a SubG1 (lung cancer cells (A549) [5]; 20 μM, Table 2) of 10.5 and a G0/G1 (lung cancer cells (A549) [5]; 30 μM, Table 2) of 14.0. The G2/M (lung cancer cells (A549) [5]; 30 μM, Table 2) was 52.9, the S (lung cancer cells (A549) [5]; 30 μM, Table 2) was 15.8 and the SubG1 (lung cancer cells (A549) [5]; 30 μM, Table 2) was 17.0.
`C#Cc1cccc(Nc2ncnc3cc(OCCOC)c(OCCOC)cc23)c1` [erlotinib, Erlotinib] gave a G0/G1 (lung cancer cells (A549) [5]; 150 μM, Table 5) of 70.6, a G2/M (lung cancer cells (A549) [5]; 150 μM, Table 5) of 12.9 and an S (lung cancer cells (A549) [5]; 150 μM, Table 5) of 7.2. It also gave a SubG1 (lung cancer cells (A549) [5]; 150 μM, Table 5) of 9.6, a G0/G1 (lung cancer cells (A549) [5]; 300 μM, Table 6) of 27.7 and a G2/M (lung cancer cells (A549) [5]; 300 μM, Table 6) of 1.2. It also gave an S (lung cancer cells (A549) [5]; 300 μM, Table 6) of 1 and a SubG1 (lung cancer cells (A549) [5]; 300 μM, Table 6) of 70.3.
